The values that follow come from US6900336B2, “8-aza-11-deoxy prostaglandin analogues” (Syntex (U.S.A.) LLC, priority 2001, dated 2005).

The target in one test is T1, EP4 Receptor (Homo sapiens, UniProt P35408).
T1 construct: host or cells: unnamed cultured cells, membrane fraction
Briefly: EP4 Ki (table under competitive [3H]PGE2 binding assay). As to the method: [Worded in the source for another target; this target is reported under the same test.] (§1) Competitive Binding Assay of [^3H]PGE2 to rEP1 or rEP3 Receptor
(§2) The cells were maintained in culture then harvested upon confluency. The membrane was prepared by two times of centrifugation (12,000× g for 15 min) following lysis of cells by polytron homogenization of 15 sec. in 10 volume of 20 mM Hepes pH 7.4 containing 1 mM EDTA, 10 mM MgCl2, 20 uM indomethacin at 4° C. […] Incubations were conducted for 1 hr at 30° C. prior to separation of the bound and free radioligand by rapid filtration. Residual [^3H]PGE2 bound to the filter was quantitated by liquid scintillation counting. The Ki of a compound was calculated by the program of one site binding calculation of Prism.

Another test addresses T2, EP2 Receptor (Homo sapiens, UniProt P43116).
T2 construct: host or cells: unnamed cultured cells, membrane fraction
Briefly: EP2 Ki (table under competitive [3H]PGE2 binding assay).

The next test addresses T3, rEP1 Receptor (UniProt P70597).
T3 sequence (P70597 1-405): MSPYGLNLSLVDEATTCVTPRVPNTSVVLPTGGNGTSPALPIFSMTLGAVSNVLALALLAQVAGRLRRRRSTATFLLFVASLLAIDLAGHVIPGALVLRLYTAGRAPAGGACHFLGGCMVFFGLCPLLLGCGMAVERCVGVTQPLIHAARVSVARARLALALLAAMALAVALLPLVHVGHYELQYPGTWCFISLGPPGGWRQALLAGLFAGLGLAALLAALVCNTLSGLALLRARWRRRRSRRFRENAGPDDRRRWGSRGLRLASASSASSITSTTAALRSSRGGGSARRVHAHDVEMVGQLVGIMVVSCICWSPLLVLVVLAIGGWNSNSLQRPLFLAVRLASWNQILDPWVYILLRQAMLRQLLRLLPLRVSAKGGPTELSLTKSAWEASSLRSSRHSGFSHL
Briefly: Competitive Binding Assay of [3H]PGE2 to rEP1 Receptor. Conditions: 3 nM [3H]PGE2, membrane fraction, 1 hr at 30° C.; read-out: EP1, Ki. The method, then:
as §1, §2

A further test has as its target T4, rEP3 Receptor (UniProt P34980).
T4 sequence (P34980 1-365): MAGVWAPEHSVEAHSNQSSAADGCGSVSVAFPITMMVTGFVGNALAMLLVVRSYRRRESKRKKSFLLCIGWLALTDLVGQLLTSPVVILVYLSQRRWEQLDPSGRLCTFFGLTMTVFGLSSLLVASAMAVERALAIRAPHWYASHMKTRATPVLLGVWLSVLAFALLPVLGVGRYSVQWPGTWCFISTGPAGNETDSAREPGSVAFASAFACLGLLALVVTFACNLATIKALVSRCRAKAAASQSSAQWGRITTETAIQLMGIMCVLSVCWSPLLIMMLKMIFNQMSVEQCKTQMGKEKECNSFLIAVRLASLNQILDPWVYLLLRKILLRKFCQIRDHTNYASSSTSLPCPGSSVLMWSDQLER
Briefly: Competitive Binding Assay of [3H]PGE2 to rEP3 Receptor. The following applies: 3 nM [3H]PGE2, membrane fraction, 1 hr at 30° C.; read-out: EP3, Ki. The method, then:
as §1
The cells were maintained in culture then harvested upon confluency. […] Incubations were conducted for 1 hr at 30° C. prior to separation of the bound and free radioligand by rapid filtration. Residual [^3H]PGE2 bound to the filter was quantitated by liquid scintillation counting. The Ki of a compound was calculated by the program of one site binding calculation of Prism.

Broadly, the Ki is a measure of affinity in units of concentration, obtained from inhibition or displacement.

T2 sequence (P43116 whole entry): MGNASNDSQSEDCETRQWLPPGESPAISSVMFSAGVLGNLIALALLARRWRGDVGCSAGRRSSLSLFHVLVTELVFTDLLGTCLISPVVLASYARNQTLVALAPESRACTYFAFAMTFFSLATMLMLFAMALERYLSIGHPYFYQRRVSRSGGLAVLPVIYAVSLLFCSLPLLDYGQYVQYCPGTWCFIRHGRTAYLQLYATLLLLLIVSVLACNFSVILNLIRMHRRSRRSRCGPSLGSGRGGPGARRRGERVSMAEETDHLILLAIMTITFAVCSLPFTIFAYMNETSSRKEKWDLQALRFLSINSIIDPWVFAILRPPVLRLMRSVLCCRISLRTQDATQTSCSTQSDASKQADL
T1 sequence (P35408 whole entry): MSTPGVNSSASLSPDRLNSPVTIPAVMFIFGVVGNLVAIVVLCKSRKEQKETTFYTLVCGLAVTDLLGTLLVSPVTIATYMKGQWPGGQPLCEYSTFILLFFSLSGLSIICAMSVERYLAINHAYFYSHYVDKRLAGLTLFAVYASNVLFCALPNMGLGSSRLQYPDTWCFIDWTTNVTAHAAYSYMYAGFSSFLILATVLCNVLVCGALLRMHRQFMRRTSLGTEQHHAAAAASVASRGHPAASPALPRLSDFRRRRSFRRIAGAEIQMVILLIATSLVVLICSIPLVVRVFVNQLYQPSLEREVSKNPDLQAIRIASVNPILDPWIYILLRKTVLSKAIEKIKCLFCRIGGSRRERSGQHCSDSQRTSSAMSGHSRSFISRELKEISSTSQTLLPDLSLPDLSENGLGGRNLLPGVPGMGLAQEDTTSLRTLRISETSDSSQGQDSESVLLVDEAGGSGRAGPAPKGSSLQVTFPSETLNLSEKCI

Take `CC1(C)C[C@H](/C=C/C(O)c2ccc(C(F)(F)F)o2)N(CCCCCCC(=O)O)C1=O` (stereo partly drawn) [Compound 55, 7-{(R)-5-[(E)-3-hydroxy-3-(5-trifluoromethyl-furan-2-yl)-propenyl]-3,3-dimethyl-2-oxo-pyrrolidin-1-yl}-heptanoic acid]: the Ki was 0.007 µM on EP4 Receptor, more than 100 µM at EP2 Receptor, more than 100 µM at rEP1 Receptor and more than 100 µM on rEP3 Receptor.

For the compound `COCc1cccc(CC(O)/C=C/[C@H]2CC(C)(C)C(=O)N2CCCCCCC(=O)O)c1` (stereo partly drawn) [Compound 59, 7-{(R)-5-[(E)-3-Hydroxy-4-(3-methoxymethyl-phenyl)-but-1-enyl]-3,3-dimethyl-2-oxo-pyrrolidin-1-yl}-heptanoic acid], the figures for the inhibitory constant (Ki) at EP4 Receptor, on EP2 Receptor and at rEP3 Receptor were 0.07 µM, more than 100 µM and more than 100 µM, respectively.

Take `O=C(O)CCCCCCN1C(=O)CC[C@@H]1/C=C/C(O)c1cccc(Oc2ccc(Cl)cc2)c1` (stereo partly drawn) [Compound 74, 7-((R)-2-{(E)-3-[3-(4-chloro-phenoxy)-phenyl]-3-hydroxy-propenyl}-5-oxo-pyrrolidin-1-yl)-heptanoic acid]: the Ki at EP4 Receptor is 0.01 µM; on EP2 Receptor it was 22.9 µM; on rEP3 Receptor, 47 µM.

Turning to `CCCCC[C@H](O)/C=C/[C@H]1CCC(=O)N1CCc1ccc(C(=O)O)cc1` [Compound 76, 4-{2-[(R)-2-((E)-3-Hydroxy-oct-1-enyl)-5-oxo-pyrrolidin-1-yl]-ethyl}-benzoic Acid], the Ki at EP4 Receptor is 0.0012 µM; on EP2 Receptor it was 0.13 µM; at rEP3 Receptor, 11 µM.

As for `Cc1cc(Cl)ccc1-c1cccc([C@H](O)CC[C@H]2CCC(=O)N2CCc2ccc(C(=O)O)cc2)c1` [Compound 81, 4-(2-{(S)-2-[(R)-3-(4′-Chloro-2′-methyl-biphenyl-3-yl)-3-hydroxy-propyl]-5-oxo-pyrrolidin-1-yl}-ethyl)-benzoic acid], the Ki at EP4 Receptor was 0.00094 µM; on EP2 Receptor, 5.1 µM; on rEP3 Receptor, 54 µM.

As for `CCCCCC(O)/C=C/[C@H]1CCC(=O)N1CCc1ccc(C(=O)O)s1` (stereo partly shown) [Compound 82], the Ki was 0.069 µM at EP4 Receptor, 3.7 µM at EP2 Receptor and more than 100 µM at rEP3 Receptor.
